# Laboratory results published in ChEMBL document CHEMBL5715945 (Cancer Biol Ther, 2010).
# Active and inactive are the calls of the source. No cut-off for these calls is given here.
# Key:
# [1] = target: Rho-associated protein kinase 1 (Homo sapiens) (UniProt Q13464); experiment: Inhibition of ROCK1 (unknown origin) at 0.1 uM relative to control; values are per cent of control
# 4T1 [2] = experiment: Induction of apoptosis in mouse 4T1 cells assessed as increase in cell membrane blebbing at 0.4 to 1 uM measured after 2 days by phase contrast microscopy analysis; format: functional, cell-based; details: dose 0.4-1 µM, time 2.0 day
# ID8 [3] = experiment: Antitumor activity against mouse ID8 suspended cells assessed as reduction in cell viability measured after 72 hrs by trypan blue staining based analysis; format: functional; details: dose 0.1 µM
# [4] = Metabolic stability in human liver microsomes assessed as half life; format: ADME, Microsome
# [5] = target: Focal adhesion kinase 1 (Mus musculus) (UniProt P34152); experiment: Inhibition of FAK phosphorylation at Tyr397 residue in mouse 4T1 cells harbouring mCherry red fluorescent protein at 0.1 to 1 uM incubated for 1 hr by immunoblotting analysis; format: cell-based; details: dose 0.1-1 µM
# Focal adhesion kinase 1 (Mus musculus), sequence (P34152 whole entry): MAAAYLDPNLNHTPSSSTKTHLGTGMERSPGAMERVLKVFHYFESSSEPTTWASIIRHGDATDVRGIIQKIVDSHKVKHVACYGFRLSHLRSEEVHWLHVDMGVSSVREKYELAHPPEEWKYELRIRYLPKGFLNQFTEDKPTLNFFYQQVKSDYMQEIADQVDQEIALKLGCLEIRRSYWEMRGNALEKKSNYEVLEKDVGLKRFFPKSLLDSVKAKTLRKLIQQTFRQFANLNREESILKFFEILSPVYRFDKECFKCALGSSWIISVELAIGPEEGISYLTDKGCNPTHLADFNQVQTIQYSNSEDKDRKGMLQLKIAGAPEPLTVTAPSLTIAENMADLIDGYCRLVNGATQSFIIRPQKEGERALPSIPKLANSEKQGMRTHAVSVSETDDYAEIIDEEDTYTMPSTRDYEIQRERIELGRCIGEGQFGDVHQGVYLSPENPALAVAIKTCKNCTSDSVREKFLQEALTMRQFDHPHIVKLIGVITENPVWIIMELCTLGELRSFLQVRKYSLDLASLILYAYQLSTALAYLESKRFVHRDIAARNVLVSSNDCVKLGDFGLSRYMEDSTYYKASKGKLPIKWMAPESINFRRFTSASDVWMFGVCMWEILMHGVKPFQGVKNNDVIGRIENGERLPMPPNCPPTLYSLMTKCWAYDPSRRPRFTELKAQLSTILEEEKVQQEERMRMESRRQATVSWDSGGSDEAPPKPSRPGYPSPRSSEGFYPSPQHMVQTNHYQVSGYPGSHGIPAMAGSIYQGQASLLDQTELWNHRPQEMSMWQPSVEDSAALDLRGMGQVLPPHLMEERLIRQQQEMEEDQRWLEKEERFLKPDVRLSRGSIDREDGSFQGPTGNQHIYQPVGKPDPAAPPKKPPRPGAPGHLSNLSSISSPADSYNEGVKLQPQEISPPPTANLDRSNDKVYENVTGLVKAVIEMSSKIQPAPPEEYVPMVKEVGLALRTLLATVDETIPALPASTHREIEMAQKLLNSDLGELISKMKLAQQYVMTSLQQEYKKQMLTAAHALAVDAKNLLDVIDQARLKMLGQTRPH
# 4T1 [6] = experiment: Upregulation of FAK level in mouse 4T1 cells harbouring mCherry red fluorescent protein at 0.1 to 1 uM incubated for 1 hr by immunoblotting analysis; format: functional, cell-based; details: dose 0.1-1 µM
# [7] = target: Tyrosine-protein kinase Lck (Homo sapiens) (UniProt P06239); experiment: Inhibition of Lck (unknown origin) at 0.1 uM relative to control; values are per cent of control
# 4T1 [8] = experiment: Induction of apoptosis in mouse 4T1 suspended cells at 0.1 uM incubated for 72 hrs by PI staining based flow cytometry analysis; format: functional, cell-based
# 4T1 [9] = experiment: Effect on p130Cas phosphorylation at Tyr249 residue in mouse 4T1 cells harbouring mCherry red fluorescent protein at 0.1 to 1 uM incubated for 1 hr by immunoblotting analysis; format: functional, cell-based; details: dose 0.1-1 µM
# [10] = target: ALK tyrosine kinase receptor (Homo sapiens) (UniProt Q9UM73); experiment: Inhibition of ALK (unknown origin) at 1 uM relative to control; values are per cent of control
# ALK tyrosine kinase receptor (Homo sapiens), sequence (Q9UM73 19-1620 limits assumed): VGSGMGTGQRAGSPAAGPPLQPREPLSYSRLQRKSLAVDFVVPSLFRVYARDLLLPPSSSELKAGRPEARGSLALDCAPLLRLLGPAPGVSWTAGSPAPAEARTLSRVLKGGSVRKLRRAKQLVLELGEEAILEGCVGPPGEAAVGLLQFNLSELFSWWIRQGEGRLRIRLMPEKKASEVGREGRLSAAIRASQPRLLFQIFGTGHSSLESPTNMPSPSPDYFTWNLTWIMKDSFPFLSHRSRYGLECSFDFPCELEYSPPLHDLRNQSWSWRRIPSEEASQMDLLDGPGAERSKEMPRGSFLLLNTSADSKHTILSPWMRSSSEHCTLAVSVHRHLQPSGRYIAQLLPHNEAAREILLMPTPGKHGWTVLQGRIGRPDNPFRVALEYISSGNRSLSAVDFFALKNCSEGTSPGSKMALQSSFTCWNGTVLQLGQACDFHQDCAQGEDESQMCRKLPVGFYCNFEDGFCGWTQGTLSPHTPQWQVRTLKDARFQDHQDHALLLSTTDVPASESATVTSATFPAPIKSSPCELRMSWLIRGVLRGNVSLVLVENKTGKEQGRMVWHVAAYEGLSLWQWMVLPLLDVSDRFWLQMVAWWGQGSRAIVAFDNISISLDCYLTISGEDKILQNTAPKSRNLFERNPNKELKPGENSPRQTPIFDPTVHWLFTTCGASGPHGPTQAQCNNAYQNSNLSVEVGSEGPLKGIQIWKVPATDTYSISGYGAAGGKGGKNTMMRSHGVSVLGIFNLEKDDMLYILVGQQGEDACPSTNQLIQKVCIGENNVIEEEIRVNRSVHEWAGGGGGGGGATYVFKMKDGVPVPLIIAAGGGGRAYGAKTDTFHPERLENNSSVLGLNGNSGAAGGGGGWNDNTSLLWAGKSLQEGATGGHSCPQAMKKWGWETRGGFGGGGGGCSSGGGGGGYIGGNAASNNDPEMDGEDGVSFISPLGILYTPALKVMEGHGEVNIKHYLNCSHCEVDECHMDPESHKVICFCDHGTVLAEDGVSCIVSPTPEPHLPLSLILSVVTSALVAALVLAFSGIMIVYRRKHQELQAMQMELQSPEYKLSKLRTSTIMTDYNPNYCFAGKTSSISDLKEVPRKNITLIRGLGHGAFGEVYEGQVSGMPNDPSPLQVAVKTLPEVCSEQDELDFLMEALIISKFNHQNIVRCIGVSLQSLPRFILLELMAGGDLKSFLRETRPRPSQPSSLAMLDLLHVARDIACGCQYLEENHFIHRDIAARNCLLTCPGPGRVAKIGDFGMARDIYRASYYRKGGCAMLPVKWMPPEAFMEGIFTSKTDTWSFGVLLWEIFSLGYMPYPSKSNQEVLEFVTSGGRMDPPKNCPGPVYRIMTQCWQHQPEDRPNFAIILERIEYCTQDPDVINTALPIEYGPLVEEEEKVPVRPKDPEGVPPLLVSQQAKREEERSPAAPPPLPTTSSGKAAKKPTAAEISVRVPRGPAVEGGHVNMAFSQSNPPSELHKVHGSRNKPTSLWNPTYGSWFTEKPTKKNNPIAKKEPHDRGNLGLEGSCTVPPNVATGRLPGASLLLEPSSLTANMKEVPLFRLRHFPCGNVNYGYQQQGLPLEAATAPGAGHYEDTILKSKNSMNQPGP
# [11] = target: Activated CDC42 kinase 1 (Homo sapiens) (UniProt Q07912); experiment: Inhibition of ACK1 (unknown origin) at 1 uM relative to control; values are per cent of control
# [12] = Toxicity in C57BL6 mouse implanted with mouse ID8 cells assessed as adverse effects at 0.5 mg/ml administered as solution in 5% sucrose measured after 30 days; format: cell-based; details: id8, 720 h, time 30 day
# [13] = target: ALK tyrosine kinase receptor (Homo sapiens) (UniProt Q9UM73); experiment: Inhibition of ALK (unknown origin) at 0.1 uM relative to control; values are per cent of control
# 4T1 [14] = experiment: Induction of apoptosis in mouse 4T1 cells assessed as increase in cell shrinkage at 0.4 to 1 uM measured after 2 days by phase contrast microscopy analysis; format: functional, cell-based; details: dose 0.4-1 µM, time 2.0 day
# [15] = Toxicity in C57BL6 mouse implanted with mouse ID8 cells assessed as change in body weight at 0.5 mg/ml administered as solution in 5% sucrose measured after 30 days; format: cell-based; details: id8, 720 h, time 30 day
# [16] = target: Epidermal growth factor receptor (Homo sapiens) (UniProt P00533); experiment: Inhibition of EGFR (unknown origin) at 0.1 uM relative to control; values are per cent of control
# Epidermal growth factor receptor (Homo sapiens), sequence (P00533 whole entry): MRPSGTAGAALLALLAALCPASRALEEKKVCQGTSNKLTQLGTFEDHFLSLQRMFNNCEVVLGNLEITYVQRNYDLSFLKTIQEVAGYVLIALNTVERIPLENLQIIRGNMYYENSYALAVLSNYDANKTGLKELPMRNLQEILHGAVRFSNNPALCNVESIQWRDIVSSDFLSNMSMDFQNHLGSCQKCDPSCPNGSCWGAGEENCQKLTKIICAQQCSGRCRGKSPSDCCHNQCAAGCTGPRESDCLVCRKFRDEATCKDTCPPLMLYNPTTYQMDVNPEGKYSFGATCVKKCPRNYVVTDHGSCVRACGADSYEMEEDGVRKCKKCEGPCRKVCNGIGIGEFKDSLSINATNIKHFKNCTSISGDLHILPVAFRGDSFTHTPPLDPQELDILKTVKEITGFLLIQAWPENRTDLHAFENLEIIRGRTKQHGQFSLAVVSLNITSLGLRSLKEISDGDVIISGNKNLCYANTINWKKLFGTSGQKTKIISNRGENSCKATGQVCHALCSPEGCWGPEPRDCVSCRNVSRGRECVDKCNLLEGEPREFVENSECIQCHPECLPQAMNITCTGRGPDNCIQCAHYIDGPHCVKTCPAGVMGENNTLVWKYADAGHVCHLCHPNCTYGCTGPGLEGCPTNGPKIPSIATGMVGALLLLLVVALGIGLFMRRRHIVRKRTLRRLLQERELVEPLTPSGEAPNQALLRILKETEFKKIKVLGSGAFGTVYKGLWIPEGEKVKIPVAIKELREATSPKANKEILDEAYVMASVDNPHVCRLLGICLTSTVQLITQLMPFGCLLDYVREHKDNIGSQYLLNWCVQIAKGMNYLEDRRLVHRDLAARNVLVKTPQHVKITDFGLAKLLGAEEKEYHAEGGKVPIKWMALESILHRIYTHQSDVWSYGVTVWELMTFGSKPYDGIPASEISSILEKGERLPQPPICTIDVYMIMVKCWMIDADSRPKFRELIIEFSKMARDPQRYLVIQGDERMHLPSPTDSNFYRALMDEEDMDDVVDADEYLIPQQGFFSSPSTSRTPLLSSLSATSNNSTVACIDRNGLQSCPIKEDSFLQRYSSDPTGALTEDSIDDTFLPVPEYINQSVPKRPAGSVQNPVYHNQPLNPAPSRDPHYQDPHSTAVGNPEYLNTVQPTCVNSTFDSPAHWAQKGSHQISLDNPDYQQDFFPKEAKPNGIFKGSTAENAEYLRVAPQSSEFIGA
# [17] = target: Tyrosine-protein kinase JAK2 (Homo sapiens) (UniProt O60674); experiment: Inhibition of JAK2 (unknown origin) at 0.1 uM relative to control; values are per cent of control
# [18] = target: cAMP-dependent protein kinase (PKA) (Homo sapiens) (UniProt P22694+P17612+P22612); experiment: Inhibition of PKA (unknown origin) at 1 uM relative to control; values are per cent of control
# 4T1 [19] = experiment: Antitumor activity against mouse 4T1 cells harbouring mCherry red fluorescent protein implanted in BALB/c mouse assessed as increase in apoptosis in tumor at 30 to 100 mg/kg, sc bid measured after 5 days by TUNEL staining based microscopic analysis; format: functional, organism-based; details: dose 30-100 mg/kg, time 5.0 day
# 4T1 [20] = experiment: Inhibition of colony formation in mouse 4T1 cells assessed as reduction in cell number by measuring minimum inhibitory effect at 0.2 uM measured after 10 days by phase contrast microscopy analysis; format: functional, cell-based; details: time 10.0 day
# [21] = target: Aurora kinase A (Homo sapiens) (UniProt O14965); experiment: Inhibition of Aurora-A (unknown origin) at 0.1 uM relative to control; values are per cent of control
# Aurora kinase A (Homo sapiens), sequence (O14965 whole entry): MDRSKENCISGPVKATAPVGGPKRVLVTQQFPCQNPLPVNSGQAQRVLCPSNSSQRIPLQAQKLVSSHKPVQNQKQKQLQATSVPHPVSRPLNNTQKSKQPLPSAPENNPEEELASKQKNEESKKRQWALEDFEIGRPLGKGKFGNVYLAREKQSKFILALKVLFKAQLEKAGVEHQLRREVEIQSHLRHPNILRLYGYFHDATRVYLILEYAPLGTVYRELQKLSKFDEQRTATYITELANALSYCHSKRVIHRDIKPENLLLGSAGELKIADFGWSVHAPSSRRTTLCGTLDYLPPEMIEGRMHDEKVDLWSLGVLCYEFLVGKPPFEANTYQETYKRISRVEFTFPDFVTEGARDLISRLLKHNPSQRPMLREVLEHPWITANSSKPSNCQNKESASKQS
# [22] = target: Death-associated protein kinase 1 (Homo sapiens) (UniProt P53355); experiment: Inhibition of DAPK1 (unknown origin) at 0.1 uM relative to control; values are per cent of control
# 4T1 [23] = experiment: Induction of apoptosis in mouse 4T1 suspended cells at 0.1 to 1 uM incubated for 48 hrs by PI staining based flow cytometry analysis; format: functional, cell-based; details: dose 0.1-1 µM
# 4T1 [24] = experiment: Inhibition of cell adhesion to fibronectin in mouse 4T1 cells at 0.4 uM incubated for 4 hrs by […]; format: functional, cell-based
# 4T1 [25] = experiment: Antitumor activity against mouse 4T1 cells harbouring mCherry red fluorescent protein implanted in BALB/c mouse assessed as increase in cleaved caspase-3 in tumor at 30 to 100 mg/kg, sc bid measured after 5 days by Hoechst staining based microscopic analysis; format: functional, organism-based; details: dose 30-100 mg/kg, time 5.0 day
# [26] = target: High affinity nerve growth factor receptor (Homo sapiens) (UniProt P04629); experiment: Inhibition of TrkA (unknown origin) at 0.1 uM relative to control; values are per cent of control
# 4T1 [27] = experiment: Antiproliferative activity against mouse 4T1 cells cultured as 3D spheroids assessed as fold reduction in average spheroid size at 0.1 uM measured after 72 hrs by phase contrast microscopic analysis; format: functional
# 4T1 [28] = experiment: Induction of apoptosis in mouse 4T1 suspended cells assessed as increase in cleaved caspase 3 expression at 0.4 uM incubated for 24 hrs by immunoblotting analysis; format: functional, cell-based
# 4T1 [29] = experiment: Induction of cell cycle arrest in mouse 4T1 adherent cells assessed as accumulation at G0/G1 phase at 1 uM measured after 72 hrs by PI staining based flow cytometry analysis (reference value: 76.8%); format: functional
# 4T1 [30] = experiment: Induction of apoptosis in mouse 4T1 adherent cells upto 0.1 uM incubated for 24 hrs by annexin V staining based flow cytometry analysis; format: functional, cell-based
# 4T1 [31] = experiment: Effect on p130Cas phosphorylation at Tyr249 residue in mouse 4T1 cultured as 3D spheroids at 0.1 uM incubated for 24 hrs by immunoblotting analysis; format: functional, cell-based
# ID8 [32] = experiment: Antitumor activity against mouse ID8 cells implanted in C57BL6 mouse assessed as inhibition of FAK phosphorylation at Y397 residue at 0.5 mg/ml administered as solution in 5% sucrose measured after 30 days by immunoblotting analysis; format: functional, cell-based; details: time 30.0 day
# [33] = target: Dual specificity mitogen-activated protein kinase kinase 1 (Homo sapiens) (UniProt Q02750); experiment: Inhibition of MEK1 (unknown origin) at 1 uM relative to control; values are per cent of control
# Dual specificity mitogen-activated protein kinase kinase 1 (Homo sapiens), sequence (Q02750 whole entry): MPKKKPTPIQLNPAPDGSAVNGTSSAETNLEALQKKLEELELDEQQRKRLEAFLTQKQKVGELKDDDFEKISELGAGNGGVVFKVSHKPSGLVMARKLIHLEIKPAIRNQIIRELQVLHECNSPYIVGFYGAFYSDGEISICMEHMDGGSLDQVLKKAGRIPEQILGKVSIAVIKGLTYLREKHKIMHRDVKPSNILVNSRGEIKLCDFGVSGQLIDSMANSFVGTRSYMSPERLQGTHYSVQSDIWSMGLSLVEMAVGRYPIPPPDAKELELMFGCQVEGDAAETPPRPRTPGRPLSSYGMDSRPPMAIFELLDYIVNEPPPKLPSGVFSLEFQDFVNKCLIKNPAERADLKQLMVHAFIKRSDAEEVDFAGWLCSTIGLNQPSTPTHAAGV
smiles,measurement,setting,value
CNC(=O)c1ccccc1Nc1cc(Nc2ccc(N3CCOCC3)cc2OC)ncc1C(F)(F)F [VS-4718],residual activity,[1],96%
same,Activity,4T1 [2],Active
same,Activity,ID8 [3],Dose-Dependent Effect
same,half-life,[4],32 min
same,inhibition,[5],Active
same,Activity,4T1 [6],Active
same,residual activity,[7],76%
same,Activity,4T1 [8],Active
same,Activity,4T1 [9],inactive
same,residual activity,[10],127%
same,residual activity,[11],16%
same,Activity,[12],Non-Toxic
same,residual activity,[13],145%
same,Activity,4T1 [14],Active
same,Activity,[15],Non-Toxic
same,residual activity,[16],99%
same,residual activity,[17],116%
same,residual activity,[18],111%
same,Activity,4T1 [19],Active
same,inhibition,4T1 [20],Active
same,residual activity,[21],69%
same,residual activity,[22],104%
same,Activity,4T1 [23],inactive
same,inhibition,4T1 [24],inactive
same,Activity,4T1 [25],Active
same,residual activity,[26],80%
same,fold change (FC),4T1 [27],~3
same,Activity,4T1 [28],Active
same,Activity,4T1 [29],65.7%
same,Activity,4T1 [30],inactive
same,Activity,4T1 [31],Active
same,Activity,ID8 [32],Active
same,residual activity,[33],79%
